# Assay results reported in patent publication US6355799B1, “Substituted benzene compounds, process for their preparation, and herbicidal and defoliant compositions containing them” (ISK Americas Incorporated, priority 1997, dated 2002).
# What was measured:
# Format in all cases: in vivo
# [1] = tested on: common ragweed (Ambrosia artemisizfolia L., AMBEL); assay: Pre-emerge test, greenhouse herbicide activity screening; conditions: pre-emerge, rated 14 days after application, 0 = no damage, 100 = complete death
# Summary of the method: (§1)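 Plants grown in 10 cm pots of sandy loam mix received acetone-dissolved compounds through a moving flat-fan nozzle. Doses ranged from 15 to 1000 g ai/ha. Pre-emerge pots were seeded one day earlier, post-emerge pots 8–21 days earlier. Fourteen days on, each pot was graded 0–100 for damage.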
# [2] = tested on: ivyleaf morningglory (Ipomoea hederacea, IPOHE); assay: as above; conditions: pre-emerge, rated 14 days after application, 0 = no damage, 100 = complete death
# Summary of the method: as §1
# [3] = tested on: lambsquarters (Chenopodium album, CHEAL); assay: as above; conditions: pre-emerge, rated 14 days after application, 0 = no damage, 100 = complete death
# Summary of the method: as §1
# [4] = tested on: velvetleaf (Abutilon theophrasti, ABUTH); assay: as above; conditions: pre-emerge, rated 14 days after application, 0 = no damage, 100 = complete death
# Summary of the method: as §1
# [5] = tested on: barnyardgrass (Echinochloa crus-galli, ECHCG); assay: as above; conditions: pre-emerge, rated 14 days after application, 0 = no damage, 100 = complete death
# Summary of the method: as §1
# [6] = tested on: green foxtail (Setaria viridis, SETVI); assay: as above; conditions: pre-emerge, rated 14 days after application, 0 = no damage, 100 = complete death
# Summary of the method: as §1
# [7] = tested on: sicklepod (Cassia obtusifolia, CASOB); assay: as above; conditions: pre-emerge, rated 14 days after application, 0 = no damage, 100 = complete death
# Summary of the method: as §1
# [8] = tested on: johnsongrass (Sorghum halepense, SORHA); assay: as above; conditions: pre-emerge, rated 14 days after application, 0 = no damage, 100 = complete death
# Summary of the method: as §1
# [9] = tested on: large crabgrass (Digitaria sanguinalis, DIGSA); assay: as above; conditions: pre-emerge, rated 14 days after application, 0 = no damage, 100 = complete death
# Summary of the method: as §1
# [10] = tested on: redroot pigweed (Amaranthus retroflexus, AMARE); assay: as above; conditions: pre-emerge, rated 14 days after application, 0 = no damage, 100 = complete death
# Summary of the method: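 Sandy loam pots; pre-emerge: sown 1 d pre-spray, surface-watered after, then bottom-watered. Post-emerge: sown 8–21 d before, 2–3 leaf stage, + 0.25% v/v NIS, bottom-watered. Acetone, 187 l/ha track spray, 15–1000 g ai/ha. 0–100 injury score, day 14.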
# [11] = tested on: common ragweed (Ambrosia artemisizfolia L., AMBEL); assay: Post-emerge test, greenhouse herbicide activity screening; conditions: phytotoxicity rating 0-100 (0 no damage, 100 complete death), 14 days after application
# Summary of the method: (§2)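 Rating: 0–100 visual injury, 14 DAA. Application: acetone, 187 l/ha, 15–1000 g ai/ha, flat-fan track sprayer with nozzle 40–45 cm above soil or canopy. Post-emerge runs used 0.25% v/v surfactant on 2–3 leaf plants.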
# [12] = tested on: ivyleaf morningglory (Ipomoea hederacea, IPOHE); assay: as above; conditions: phytotoxicity rating 0-100 (0 no damage, 100 complete death), 14 days after application
# Summary of the method: as §2
# [13] = tested on: lambsquarters (Chenopodium album, CHEAL); assay: as above; conditions: phytotoxicity rating 0-100 (0 no damage, 100 complete death), 14 days after application
# Summary of the method: as §2
# [14] = tested on: velvetleaf (Abutilon theophrasti, ABUTH); assay: as above; conditions: phytotoxicity rating 0-100 (0 no damage, 100 complete death), 14 days after application
# Summary of the method: as §2
# [15] = tested on: barnyardgrass (Echinochloa crus-galli, ECHCG); assay: as above; conditions: phytotoxicity rating 0-100 (0 no damage, 100 complete death), 14 days after application
# Summary of the method: as §2
# [16] = tested on: redroot pigweed (Amaranthus retroflexus, AMARE); assay: as above; conditions: phytotoxicity rating 0-100 (0 no damage, 100 complete death), 14 days after application
# Summary of the method: as §2
# [17] = tested on: green foxtail (Setaria viridis, SETVI); assay: as above; conditions: phytotoxicity rating 0-100 (0 no damage, 100 complete death), 14 days after application
# Summary of the method: as §2
# [18] = tested on: sicklepod (Cassia obtusifolia, CASOB); assay: as above; conditions: phytotoxicity rating 0-100 (0 no damage, 100 complete death), 14 days after application
# Summary of the method: as §2
# [19] = tested on: johnsongrass (Sorghum halepense, SORHA); assay: as above; conditions: phytotoxicity rating 0-100 (0 no damage, 100 complete death), 14 days after application
# Summary of the method: as §2
# [20] = tested on: large crabgrass (Digitaria sanguinalis, DIGSA); assay: as above; conditions: phytotoxicity rating 0-100 (0 no damage, 100 complete death), 14 days after application
# Summary of the method: as §2
# [21] = tested on: upland rice (Oryza sp., var. Tebonnet, RICE); assay: Post-emerge test, crop safety; conditions: phytotoxicity rating 0-100 (0 no damage, 100 complete death), 14 days after application
# Summary of the method: (§3)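 Each test used a mechanized track sprayer delivering 187 l/ha of acetone solution at 15–1000 g ai/ha. Post-emerge foliage at 2–3 leaves was treated with added 0.25% v/v non-ionic surfactant and bottom-watered only. Injury was assessed on day 14, where 100 means total kill.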
# [22] = tested on: field corn (Zea mays L., var. Dekalb 535, CORN); assay: Post-emerge test, crop safety; conditions: phytotoxicity rating 0-100 (0 no damage, 100 complete death), 14 days after application
# Summary of the method: as §3
# [23] = tested on: upland rice (Oryza sp., var. Tebonnet, RICE); assay: Pre-emerge test, crop safety; conditions: pre-emerge, rated 14 days after application, 0 = no damage, 100 = complete death
# Summary of the method: (§4)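 Herbicidal damage is scored 0 (none) to 100 (complete plant death) two weeks after a simulated field spray. Rates span 15–1000 g ai/ha, delivered in acetone at 187 l/ha. For post-emergence treatments, plants have 2–3 leaves and the spray carries 0.25% v/v non-ionic surfactant.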
# [24] = tested on: field corn (Zea mays L., var. Dekalb 535, CORN); assay: Pre-emerge test, crop safety; conditions: pre-emerge, rated 14 days after application, 0 = no damage, 100 = complete death
# Summary of the method: as §4
compound,measurement,setting,value
CCCc1ccc(C(=O)N(C(=O)c2ccc(CCC)cc2)c2c(OC)c(Cl)cc(F)c2-n2c(=O)cc(C(F)(F)F)n(C)c2=O)cc1 [2-29],"Pre-emerge Herbicidal Activity AMBEL (phytotoxicity rating, scale 0-100)",[1]; 63 g ai/ha,0
same,"Pre-emerge Herbicidal Activity AMBEL (phytotoxicity rating, scale 0-100)",[1]; 250 g ai/ha,60
same,"Pre-emerge Herbicidal Activity IPOHE (phytotoxicity rating, scale 0-100)",[2]; 63 g ai/ha,30
same,"Pre-emerge Herbicidal Activity IPOHE (phytotoxicity rating, scale 0-100)",[2]; 250 g ai/ha,100
same,"Pre-emerge Herbicidal Activity CHEAL (phytotoxicity rating, scale 0-100)",[3]; 63 g ai/ha,100
same,"Pre-emerge Herbicidal Activity CHEAL (phytotoxicity rating, scale 0-100)",[3]; 250 g ai/ha,100
same,"Pre-emerge Herbicidal Activity ABUTH (phytotoxicity rating, scale 0-100)",[4]; 63 g ai/ha,100
same,"Pre-emerge Herbicidal Activity ABUTH (phytotoxicity rating, scale 0-100)",[4]; 250 g ai/ha,100
same,"Pre-emerge Herbicidal Activity ECHCG (phytotoxicity rating, scale 0-100)",[5]; 63 g ai/ha,0
same,"Pre-emerge Herbicidal Activity ECHCG (phytotoxicity rating, scale 0-100)",[5]; 250 g ai/ha,50
same,"Pre-emerge Herbicidal Activity SETVI (phytotoxicity rating, scale 0-100)",[6]; 63 g ai/ha,100
same,"Pre-emerge Herbicidal Activity SETVI (phytotoxicity rating, scale 0-100)",[6]; 250 g ai/ha,100
same,"Pre-emerge Herbicidal Activity CASOB (phytotoxicity rating, scale 0-100)",[7]; 63 g ai/ha,60
same,"Pre-emerge Herbicidal Activity CASOB (phytotoxicity rating, scale 0-100)",[7]; 250 g ai/ha,100
same,"Pre-emerge Herbicidal Activity SORHA (phytotoxicity rating, scale 0-100)",[8]; 63 g ai/ha,0
same,"Pre-emerge Herbicidal Activity SORHA (phytotoxicity rating, scale 0-100)",[8]; 250 g ai/ha,80
same,"Pre-emerge Herbicidal Activity DIGSA (phytotoxicity rating, scale 0-100)",[9]; 63 g ai/ha,60
same,"Pre-emerge Herbicidal Activity DIGSA (phytotoxicity rating, scale 0-100)",[9]; 250 g ai/ha,90
same,"Pre-emerge Herbicidal Activity AMARE (phytotoxicity rating, scale 0-100)",[10]; 63 g ai/ha,100
same,"Pre-emerge Herbicidal Activity AMARE (phytotoxicity rating, scale 0-100)",[10]; 250 g ai/ha,100
same,Post-emerge Herbicidal Activity AMBEL,[11]; 63 g ai/ha,50
same,Post-emerge Herbicidal Activity AMBEL,[11]; 250 g ai/ha,60
same,Post-emerge Herbicidal Activity IPOHE,[12]; 63 g ai/ha,75
same,Post-emerge Herbicidal Activity IPOHE,[12]; 250 g ai/ha,100
same,Post-emerge Herbicidal Activity CHEAL,[13]; 63 g ai/ha,80
same,Post-emerge Herbicidal Activity CHEAL,[13]; 250 g ai/ha,90
same,Post-emerge Herbicidal Activity ABUTH,[14]; 63 g ai/ha,100
same,Post-emerge Herbicidal Activity ABUTH,[14]; 250 g ai/ha,100
same,Post-emerge Herbicidal Activity ECHCG,[15]; 63 g ai/ha,0
same,Post-emerge Herbicidal Activity ECHCG,[15]; 250 g ai/ha,20
same,Post-emerge Herbicidal Activity AMARE,[16]; 63 g ai/ha,90
same,Post-emerge Herbicidal Activity AMARE,[16]; 250 g ai/ha,100
same,Post-emerge Herbicidal Activity SETVI,[17]; 63 g ai/ha,20
same,Post-emerge Herbicidal Activity SETVI,[17]; 250 g ai/ha,50
same,Post-emerge Herbicidal Activity CASOB,[18]; 63 g ai/ha,20
same,Post-emerge Herbicidal Activity CASOB,[18]; 250 g ai/ha,40
same,Post-emerge Herbicidal Activity SORHA,[19]; 63 g ai/ha,0
same,Post-emerge Herbicidal Activity SORHA,[19]; 250 g ai/ha,10
same,Post-emerge Herbicidal Activity DIGSA,[20]; 63 g ai/ha,0
same,Post-emerge Herbicidal Activity DIGSA,[20]; 250 g ai/ha,20
same,Post-emerge Herbicidal Activity RICE (crop damage),[21]; 63 g ai/ha,40
same,Post-emerge Herbicidal Activity RICE (crop damage),[21]; 250 g ai/ha,60
same,Post-emerge Herbicidal Activity CORN (crop damage),[22]; 63 g ai/ha,10
same,Post-emerge Herbicidal Activity CORN (crop damage),[22]; 250 g ai/ha,25
same,"Pre-emerge crop damage RICE (phytotoxicity rating, scale 0-100)",[23]; 63 g ai/ha,40
same,"Pre-emerge crop damage RICE (phytotoxicity rating, scale 0-100)",[23]; 250 g ai/ha,65
same,"Pre-emerge crop damage CORN (phytotoxicity rating, scale 0-100)",[24]; 63 g ai/ha,0
same,"Pre-emerge crop damage CORN (phytotoxicity rating, scale 0-100)",[24]; 250 g ai/ha,15
